Reference: patent publication US12686690B2, “Macrocyclic urea orexin receptor agonists” (Merck Sharp & Dohme LLC, priority 2020, dated 2026)

Biological target: T1, hOX2R (Homo sapiens, UniProt O43614)
T1 construct: expressed in transfected cells; host or cells: CHO cells (G418 selection)
T1 sequence (O43614 1-444): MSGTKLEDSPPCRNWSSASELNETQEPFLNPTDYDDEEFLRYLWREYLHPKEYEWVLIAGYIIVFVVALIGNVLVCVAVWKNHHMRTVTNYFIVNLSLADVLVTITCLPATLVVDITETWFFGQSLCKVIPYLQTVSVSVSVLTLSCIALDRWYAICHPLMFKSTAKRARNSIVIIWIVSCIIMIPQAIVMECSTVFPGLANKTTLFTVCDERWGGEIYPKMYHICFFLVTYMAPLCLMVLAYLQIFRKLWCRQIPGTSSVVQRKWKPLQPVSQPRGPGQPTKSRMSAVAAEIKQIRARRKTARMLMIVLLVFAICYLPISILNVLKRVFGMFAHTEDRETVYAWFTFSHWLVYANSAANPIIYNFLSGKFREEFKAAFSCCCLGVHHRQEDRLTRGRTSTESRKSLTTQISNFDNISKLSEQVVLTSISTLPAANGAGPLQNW
Test: hOX2R IPone assay (orexin receptor agonism)
Format: cell-based
Conditions: IPone readout; for hOX2R_Ipone max %act: maximal activation; for EC50: orexin receptor agonist, read-out: hOX2R_IPone EC50

Structure (SMILES) | hOX2R_Ipone max %act [%] | EC50 [nM]
CCN1C(=O)N[C@@H](CCC(F)(F)F)CCCCCCc2cc(cn3ccnc23)-c2nc(ccc2OC)[C@H]1C [Example 106, (12R,16R)-13-ethyl-8-methoxy-12-methyl-16-(3,3,3-trifluoropropyl)-12,13,15,16,17,18,19, 20,21,22-decahydro-14H-11,7-(azeno)-6,23-(metheno) imidazo[1,2-1][1,3,12] triazacyclohenicosin-14-one] | 99.7 | 1.7
CCN1C(=O)NC(CCC(F)(F)F)COCCCOc2nc(cn3ccnc23)-c2cc(ncc2OC)[C@H]1C (single isomer, unassigned) [Example 21A] | 100.4 | 19.6
CCN1C(=O)NCCCCCCOc2nc(cn3ccnc23)-c2cccc(c2)[C@H]1C [Example 12, (12R)-13-ethyl-12-methyl-12,13,16,17,18,19, 20,21-octahydro-6,23-(azeno)-11,7-(metheno) imidazo[2,1-c][1,4,13,15]oxa-triazacyclohenicosin-14(15H)-one] | 99.76 | 20.3
CCN1C(=O)N[C@@H](CCC(F)(F)F)COCCCOc2nc(cn3ncnc23)-c2cc(ncc2OC)[C@H]1C [Example 174, (3R,7S,E)-4-ethyl-25-methoxy-3-methyl-7-(3,3,3-trifluoropropyl)-9,13-dioxa-4,6-diaza-1(6,8)-[1,2,4]triazolo[1,5-a]pyrazina-2(4,2)-pyridinacyclotridecaphan-5-one] | 103.8 | 3.08
CCN1C(=O)NC(C)/C=C/CC(F)(F)COc2cn3ccnc3c(n2)-c2cc(ncc2OC)[C@H]1C (stereo partly drawn) [Example 220, (1^7E,3R,8E)-4-ethyl-11,11-difluoro-25-methoxy-3,7-dimethyl-13-oxa-4,6-diaza-1(6,8)-imidazo[1,2-a]pyrazina-2(4,2)-pyridinacyclotridecaphan-8-en-5-one] | 108.5 | 12.1
CCN1C(=O)NC(CCC(F)(F)F)CC(C)CCOc2nc(cn3ccnc23)-c2cccc(c2)[C@H]1C (single isomer, unassigned) [Example 48A] | 99.4 | 4.1
CCN1C(=O)NC2CC2CCCCOc2cn3ccnc3c(n2)-c2cc(ncc2OC)C1C [Example 145, (3R,E)-4-ethyl-25-methoxy-3-methyl-12-oxa-4,6-diaza-1(6,8)-imidazo[1,2-a]pyrazina-2(4,2)-pyridina-7(1,2)-cyclopropanacyclododecaphan-5-one] | 103.8 | 4.4
CCN1C(=O)NC2CN(CCCOc3nc(cn4ccnc34)-c3cccc(c3)[C@H]1C)CC2(F)F (mixture of isomers) [Example 213, (3R,E)-4-ethyl-7^4,7^4-difluoro-3-methyl-11-oxa-4,6-diaza-1(6,8)-imidazo[1,2-a]pyrazina-7(3,1)-pyrrolidina-2(1,3)-benzenacycloundecaphan-5-one] | 101.8 | 6.44
CCN1C(=O)N[C@@H](CCC(F)(F)F)CCCCCOc2cc(cn3ccnc23)-c2cc(cnc2OC)[C@H]1C [Example 91, (12R,16R)-13-ethyl-8-methoxy-12-methyl-16-(3,3,3-trifluoropropyl)-12,13,16,17,18,19,20, 21-octahydro-6,23:11,7-di(metheno) imidazo[2,1-c][1,4,9, 13,15]oxatetraazacyclo-henicosin-14(15H)-one] | 100.5 | 0.6
CCN1C(=O)NC(CC2CCC2)CCCCCOc2nc(cn3ccnc23)-c2cc(ncc2OC)[C@H]1C (single isomer, unassigned) [Example 61A] | 100.3 | 34.6
CCN1C(=O)N[C@@H](CCC(F)(F)F)CCCCCOc2cc(cc3cccnc23)-c2cc(ncc2OC)[C@H]1C [Example 157, (3R,7R)-4-ethyl-25-methoxy-3-methyl-7-(3,3,3-trifluoropropyl)-13-oxa-4,6-diaza-1(6,8)-quinolina-2(4,2)-pyridinacyclotridecaphan-5-one] | 99.72 | 2.68
CCN1C(=O)NC(CCC(C)(C)F)CCCCCOc2nc(cn3ccnc23)-c2cc(ncc2OC)[C@H]1C (single isomer, unassigned) [Example 71B] | 101.6 | 1.6
CCN1C(=O)N[C@@H](CCC(F)(F)F)CCCCCOc2cc(nn3ccnc23)-c2cc(cnc2OC)[C@H]1C [Example 89, (12R,16R)-13-ethyl-8-methoxy-12-methyl-16-(3,3,3-trifluoropropyl)-12,13,16,17,18,19,20, 21-octahydro-6,23:11,7-di(metheno) imidazo[2,1-c][1,4,5,9,13,15]oxapentaaza-cyclohenicosin-14(15H)-one] | 99.2 | 6.4
CCN1C(=O)N[C@@H](CCC(F)(F)F)CCCCCOc2nc(cn3ccnc23)-c2cc(nnc2OC)[C@H]1C [Example 116, (12R,16R)-13-ethyl-8-methoxy-12-methyl-16-(3,3,3-trifluoropropyl)-12,13,16,17,18,19,20,21-octahydro-6,23-(azeno)-11,7-(metheno)imidazo[2,1-c][1,4,9,10,13,15]oxapentaazacyclohenicosin-14(15H)-one] | 99.7 | 1.6
CCN1C(=O)N[C@@H](CCC(F)(F)F)CCCCCOc2nc(cn3ccnc23)-c2cc(ccn2)[C@H]1C [Example 113B, (12R,16R)-13-ethyl-12-methyl-16-(3,3,3-trifluoropropyl)-12,13,16,17,18,19,20,21-octahydro-6,23-(azeno)-11,7-(metheno)imidazo[2,1-c][1,4,8,13,15]oxatetraazacyclohenicosin-14(15H)-one] | 100.9 | 3.3
CCN1C(=O)N[C@@H](CCC(F)(F)F)CCCCCOc2nc(cn3ccnc23)-c2cc(nc(C)n2)[C@H]1C [Example 119B, (12R,16R)-13-ethyl-9,12-dimethyl-16-(3,3,3-trifluoropropyl)-12,13,16,17,18,19,20,21-octahydro-6,23-(azeno)-11,7-(metheno)imidazo[2,1-c][1,4,8,10,13,15]oxapentaazacyclohenicosin-14(15H)-one] | 99.9 | 4.6
CCN1C(=O)NC(CCC(F)(F)F)CCC(F)(F)CCOc2nc(cn3ccnc23)-c2cc(ncc2OC)[C@H]1C (single isomer, unassigned) [Example 121A] | 100.4 | 9.8
CCN1C(=O)NC(C2CC2)CCCCCOc2nc(cn3ccnc23)-c2cc(ncc2OC)[C@H]1C (single isomer, unassigned) [Example 57A] | 100.7 | 119

More lines, in order of falling EC50, values ahead:

hOX2R_Ipone max %act [%] | EC50 [nM] | Structure (SMILES)
96.6 | 528 | CCN1C(=O)N[C@@H](CCC(F)(F)F)CCCCCOc2nc(cn3cc(C)nc23)-c2cc(nc3ccoc23)C1C (single isomer, unassigned) [Example 75A]
101.5 | 55.7 | CCN1C(=O)NC(CC(C)C)CCCCCOc2nc(cn3ccnc23)-c2cc(ncc2OC)[C@H]1C (single isomer, unassigned) [Example 53A]
100.3 | 54.4 | CCN1C(=O)N[C@@H](CCC(F)(F)F)CCCCCOc2nc(cn3ccnc23)C2=NC=C(S2)C1C (single isomer, unassigned) [Example 94B]
102.6 | 37.5 | CCN1C(=O)NC(c2ncnn2C)CCCCCOc2nc(cn3ccnc23)-c2cc(ncc2OC)[C@H]1C (stereo partly drawn) [Example 219, (3R,E)-4-ethyl-2^5-methoxy-3-methyl-7-(1-methyl-1H-1,2,4-triazol-5-yl)-13-oxa-4,6-diaza-1(6,8)-imidazo[1,2-a]pyrazina-2(4,2)-pyridinacyclotridecaphan-5-one]
98.9 | 23.4 | CCN1C(=O)NC(CCC(F)(F)F)C(C)/C=C\COc2nc(cn3ccnc23)-c2cccc(c2)[C@H]1C (single isomer, unassigned) [Example 41C]
104.4 | 10.9 | CCN1C(=O)N[C@@H](CCC(F)(F)F)C/C=C/CCOc2nc(cc3cccnc23)-c2cc(ncc2OC)[C@H]1C [Example 163, (3R,7S,E)-4-ethyl-25-methoxy-3-methyl-7-(3,3,3-trifluoropropyl)-13-oxa-4,6-diaza-1(6,8)-naphthyridina-2(4,2)-pyridinacyclotridecaphan-9-en-5-one]
100.2 | 1.3 | CCN1C(=O)N[C@@H](CCC(F)(F)F)CCCCCOc2nc(cn3ccnc23)-c2ccnc(c2)[C@H]1C [Example 110, (3R,7R,E)-4-ethyl-3-methyl-7-(3,3,3-trifluoropropyl)-13-oxa-4,6-diaza-1(6,8)-imidazo[1,2-a]pyrazina-2(4,2)-pyridinacyclotridecaphan-5-one]
109.6 | 1.11 | CCN1C(=O)N[C@@H](CCC(F)(F)F)CCCCCOc2cc(nn3ccnc23)-c2cc(ncc2OC)[C@H]1C [Example 149, (3R,7R,E)-4-ethyl-25-methoxy-3-methyl-7-(3,3,3-trifluoropropyl)-13-oxa-4,6-diaza-1(6,8)-imidazo[1,2-b]pyridazina-2(4,2)-pyridinacyclotridecaphan-5-one]
101.1 | 0.7 | CCN1C(=O)NC(CC2(C(F)(F)F)CC2)CCCCCOc2nc(cn3ccnc23)-c2cc(ncc2OC)[C@H]1C (single isomer, unassigned) [Example 66B]
